What follows are compounds tested on Rats (assay: Geller-Seifter procedure (conflict test for anxiolytic properties)). Settings: Rattus norvegicus, 0.5 h; dose 50 mg/kg po, 30 min before testing; percentage increase in square root of total lever presses in the FR5 'conflict' session; read-out: increase in responding in the 'conflict' session.
Assay type: in vivo
Procedure: Potential anxiolytic properties have been evaluated using the Geller-Seifter procedure based on that originally described by Geller and Seifter, (1960) Psychopharmacologia, 1, 482-492.
Rats are trained on a variable interval 30 sec schedule (VI30) to press a lever in order to obtain food reward. The 5 min sessions of the V130 schedule alternate with 2-5 min of a schedule (FR5) in which every 5th lever press is followed by presentation of a food pellet paired with a 0.5 sec mild footshock. The total study lasts approximately 30 mins. Rats typically respond with high rates of lever pressing under the VI30 schedule and low response rats under the Fx5 'conflict' session. Anxiolytic drugs increase the suppressed response rates of rats in 'conflict' session.
Drugs are administered intraperitoneally or orally to groups of 3-8 rats 30 min before testing.
The results are expressed as the percentage increase in square root of the total number of lever presses in the FR5 'conflict' session. Square root transformation is necessary to normalise the data for statistical analysis using parametric methods.

First: COC(=O)c1c(C)nc2[nH]c3ccccc3c2c1N [Example 1, 4-Amino-2-methyl-9H-pyrido[2,3-b]indole-3-carboxylic acid, methyl ester]
Second: CNc1c(C(=O)OC)c(C)nc2c1c1ccccc1n2C [Example 8, 2,9-Dimethyl-4-methylamino-9H-pyrido[2,3-b]indole-3-carboxylic acid, methyl ester]
The change in vivo at 50 mg/kg of the first is higher: 143% for the first, 112% for the second.

Compared with `C=CCOC(=O)c1c(C)nc2c(c1N)c1ccccc1n2C` [Example 11, 4-Amino-2,9-dimethyl-9H-pyrido[2,3-b]indole-3-carboxylic acid, 2-propenyl ester], `C#CCOC(=O)c1c(C)nc2c(c1N)c1ccccc1n2C` [Example 14, 4-Amino-2,9-dimethyl-9H-pyrido[2,3-b]indole-3-carboxy-lie acid, 2-propynyl ester] is lower in change in vivo at 50 mg/kg: 138% for the first, 102% for the second.

`CCCOC(=O)c1c(C)nc2c(c1N)c1ccccc1n2C` [Example 24, 4-Amino-2,9-dimethyl-9H-pyrido[2,3,b]indole-3-carboxylic acid, n-propyl ester] gave a change in vivo at 50 mg/kg of 78%.

Reference: patent EP0249301A1, “Pyrido[2,3-b]indoles” (BEECHAM GROUP PLC, priority 1986, dated 1987)
